Results: publication PMC11855827, “High-Throughput Screening of Five Compound Libraries for Anthelmintic Activity and Toxicity Leads to the Discovery of Two Flavonoid Compounds” (International Journal of Molecular Sciences, 2025)
*1 amine or outer side, *2 acyl side, *3 side chain or, on linkers, in order; H or OH if unused. Where a SMILES comes first, the peptide text is derived from it. Bridges are numbered along the chain shown (N, C = ends). [ ]: non-standard residue; d: D form. The star is where a group is joined. Orn(4R-OH,5R-OH) = O=C([C@H](C[C@@H](O)[C@@H](O)N[*:3])N[*:1])[*:2]; Tetradecanoyl(10R,12S-Me2) = CC[C@H](C)C[C@H](C)CCCCCCCCC(=O)*; hTyr(3S-OH,4S-OH) = N[C@H](C(=O)O)[C@H](O)[C@@H](O)c1ccc(O)cc1; Gln(3R-OH) = NC(=O)C[C@@H](O)[C@H](N)C(=O)O; Pro(3S-OH) = O=C(O)[C@H]1NCC[C@@H]1O; Hyp = O=C(O)[C@@H]1C[C@@H](O)CN1

Test system: C. elegans
Settings: Table S2, C. elegans SS assay, 110 μM, averages of 4 data points

| Compound | Percentage of motility inhibition 0 h | Percentage of motility inhibition 24 h |
| --- | --- | --- |
| COc1ccc([C@@H]2CC(=O)c3c(O)cc(O[C@@H]4O[C@H](CO)[C@@H](O)[C@H](O)[C@H]4O[C@@H]4O[C@@H](C)[C@H](O)[C@@H](O)[C@H]4O)cc3O2)cc1O [Neohesperidin] | 14% | 0% |
| COc1cc2c(cc1O)CC[n+]1cc3c(OC)c(OC)ccc3cc1-2.[Cl-] [Jatrorrhizine (chloride)] | 33% | 4% |
| CC(C)=CC1CC(O)(C2CCC3(C)C2CCC2C4(C=O)CCC(OC5OCC(O)C(OC6OCC(O)C(O)C6O)C5OC5OC(C)C(O)C(O)C5O)C(C)(C)C4CCC23C)C(O)O1 (stereo not shown) [Gypenoside A] | 0% | 0% |
| O=C1CCCC2C3CCC[N+]4([O-])CCCC(CN12)C34 (stereo not shown) [Oxysophoridine] | 18% | 9% |
| COc1ccc(-c2coc3cc(O)cc(O)c3c2=O)cc1 [Biochanin A] | 7% | 0% |
| CC1(C)CC[C@]2(C(=O)O)CCC3=C(CC[C@@H]4[C@@]5(C)C[C@H](O)[C@H](O)[C@@](C)(C(=O)O)[C@@H]5CC[C@@]34C)[C@@H]2C1 [Polygalic acid] | 0% | 1% |
| O.O=C1C=CC[C@@H]2[C@H]3CCCN4CCC[C@@H](CN12)[C@@H]34 [Sophocarpine (monohydrate)] | 0% | 0% |
| CC1(C)CC[C@]2(C(=O)O[C@@H]3O[C@H](CO)[C@@H](O)[C@H](O)[C@H]3O)CC[C@]3(C)C(=CC[C@@H]4[C@@]5(C)C[C@@H](O)[C@H](O)C(C)(C)[C@@H]5CC[C@]43C)[C@@H]2[C@@H]1O [Arjunetin] | 0% | 18% |
| CC1=CC23C(=O)C(C=C4COC(C)(C)OC4C24OC(C)(C)OC14)C1C(CC3C)C1(C)C (stereo not shown) [Ingenol-3,4,5,20-diacetonide] | 1% | 9% |
| CCCCCCCCCCCCCc1cc(=O)c2ccccc2n1C [Dihydroevocarpine] | 3% | 0% |
| COc1ccc2c(c1OC)O[C@H]1c3ccc(O[C@@H]4O[C@H](CO)[C@@H](O)[C@H](O)[C@H]4O)cc3OC[C@@H]21 [Methylnissolin‐3‐O‐glucoside] | 8% | 7% |
| COCCNC(=O)Nc1ccc2nc(-c3cccs3)c(-c3cccs3)nc2c1 [Ac‐CoA Synthase Inhibitor1] | 16% | 8% |
| C=C1C[C@@]23CC[C@H]4[C@@](C)(CCC[C@@]4(C)C(=O)O[C@@H]4O[C@H](CO)[C@@H](O)[C@H](O)[C@H]4O[C@@H]4O[C@H](CO)[C@@H](O)[C@H](O)[C@H]4O)[C@@H]2CC[C@]1(O[C@@H]1O[C@H](CO)[C@@H](O)[C@H](O[C@@H]2O[C@H](CO)[C@@H](O)[C@H](O)[C@H]2O)[C@H]1O[C@@H]1O[C@H](CO)[C@@H](O)[C@H](O)[C@H]1O)C3 [Rebaudioside D] | 11% | 3% |
| CC(C)c1ccc2c(c1)CC[C@H]1[C@](C)(CN)CCC[C@]21C.Cl [Leelamine (hydrochloride)] | 22% | 57% |
| COc1ccc(C2COc3cc(O)ccc3C2)c(O)c1OC (stereo not shown) [Isomucronulatol] | 7% | 7% |
| COC(=O)[C@@]1(C)CC[C@]2(C(=O)O)CC[C@]3(C)C(=CC[C@@H]4[C@@]5(C)C[C@H](O)[C@H](O)[C@@](C)(CO)[C@@H]5CC[C@]43C)[C@@H]2C1 [Phytolaccagenin] | 5% | 15% |
| CC(/C=C/C=C(\C)C(=O)[O-])=C\C=C\C=C(C)\C=C\C=C(/C)C(=O)[O-].[Na+].[Na+] [Crocetin (disodium)] | 0% | 5% |
| COc1cc(/C=C/C(=O)OC[C@H]2O[C@@H](O[C@@H]3[C@@H](O)[C@H](O)[C@@H](CO)O[C@H]3c3c(OC)cc4oc(-c5ccc(O)cc5)cc(=O)c4c3O)[C@H](O)[C@@H](O)[C@@H]2O)ccc1O [6‴‐Feruloylspinosin] | 9% | 13% |
| CC=C1[C@H](O[C@@H]2O[C@H](CO)[C@@H](O)[C@H](O)[C@H]2O)OC=C(C(=O)OC)[C@H]1CC(=O)OC[C@H]1O[C@@H](OCCc2ccc(O)cc2)[C@H](O)[C@@H](O)[C@@H]1O (stereo in doubt) [Specneuzhenide] | 3% | 31% |
| COc1cc2c(cc1OC)-c1cc3ccc(OC)c(OC)c3c[n+]1CC2.[Cl-] [Palmatine (chloride)] |  | 0% |

| Compound | Percentage of motility inhibition 0 h | Percentage of motility inhibition 24 h |
| --- | --- | --- |
| COc1cc(C2Oc3ccc([C@H]4Oc5cc(O)cc(O)c5C(=O)[C@@H]4O)cc3OC2CO)ccc1O (stereo partly shown) [Isosilybin] | 2% | 0% |
| COc1cc(/C=C/C(=O)NCCc2c[nH]c3ccc(O)cc23)ccc1O [N‐Feruloylserotonin] | 11% | 18% |
| Cl.Oc1ccc(CC2NCCc3cc(O)c(O)cc32)cc1 (stereo not shown) [Higenamine (hydrochloride)] | 0% | 7% |
| CC1=COC(=O)[C@H]2[C@@H]1CC[C@@H]2C [4aα,7α,7aα-Nepetalactone] | 17% | 16% |
| CC[C@H](C)C[C@H](C)CCCCCCCCC(=O)N[C@H]1C[C@@H](O)[C@@H](O)NC(=O)[C@@H]2[C@@H](O)CCN2C(=O)[C@H]([C@H](O)CC(N)=O)NC(=O)[C@H]([C@H](O)[C@@H](O)c2ccc(O)cc2)NC(=O)[C@@H]2C[C@@H](O)CN2C(=O)[C@H]([C@@H](C)O)NC1=O [Pneumocandin B0] ({Tetradecanoyl(10R,12S-Me2)}-[Orn(4R-OH,5R-OH)]T[Hyp][hTyr(3S-OH,4S-OH)][Gln(3R-OH)][Pro(3S-OH)]; lactam 1-C) | 0% | 0% |
| Cc1onc(-c2ccccc2Cl)c1C(=O)N[C@@H]1C(=O)N2[C@@H]1SC(C)(C)[C@@H]2C(=O)[O-].O.[Na+] [Cloxacillin (sodium monohydrate)] | 14% | 4% |
| C[C@H](CC[C@@H](O[C@@H]1O[C@H](CO)[C@@H](O)[C@H](O)[C@H]1O[C@@H]1O[C@H](CO)[C@@H](O)[C@H](O)[C@H]1O)C(C)(C)O)[C@H]1CC[C@@]2(C)[C@H]3CC=C4[C@@H](CC[C@H](O[C@@H]5O[C@H](CO[C@@H]6O[C@H](CO)[C@@H](O)[C@H](O)[C@H]6O)[C@@H](O)[C@H](O)[C@H]5O)C4(C)C)[C@]3(C)[C@H](O)C[C@]12C [Mogroside IV-E] | 4% | 6% |
| Ingenol-5,20-acetonide | 4% | 6% |
| CC1(C)CC[C@]2(C(=O)O[C@@H]3O[C@H](CO)[C@@H](O)[C@H](O)[C@H]3O)[C@H](O)C[C@]3(C)C(=CC[C@@H]4[C@@]5(C)CC[C@H](O)C(C)(C)[C@@H]5CC[C@]43C)[C@@H]2C1 [Echinocystic acid 28-O-β-D-glucoside] | 36% | 41% |
| Cc1c(C)c2c(c(C)c1O)CCC(C)(CCCC(C)CCCC(C)CCCC(C)C)O2 (racemic) [DL-alpha-Tocopherol] | 5% | 9% |
| CC1(C)CC[C@@]2(CO)C(=C3C=C[C@@H]4[C@@]5(C)CC[C@H](O)[C@@](C)(CO)[C@@H]5CC[C@@]4(C)[C@]3(C)C[C@H]2O)C1 [Saikogenin D] | 27% | 14% |
| C[C@@H]1O[C@@H](O[C@H]2[C@H](Oc3cc(O)c(C(=O)CCc4ccc(O)cc4)c(O)c3)O[C@H](CO)[C@@H](O)[C@@H]2O)[C@H](O)[C@H](O)[C@H]1O [Naringin Dihy drochalcone] | 14% | 1% |
| Phytol | 13% | 5% |
| Cc1c(O)c(O)cc2c1CC=C1[C@@]2(C)CC[C@@]2(C)[C@@H]3C[C@](C)(C(=O)O)CC[C@]3(C)CC[C@]12C [Triptohypol C] | 0% | 43% |
| C/C(=C\C=C\[C@@]1(C)OC(=O)[C@]23CC=C(C(=O)O)CC[C@]2(O)[C@H]1CC3)C(=O)O [Demethoxydeacetoxypseudolaric acid B] | 0% | 0% |
| C[C@@H]1O[C@@H](O[C@H]2[C@H](Oc3cc(O)c4c(c3)O[C@H](c3ccc(O)c(O)c3)CC4=O)O[C@H](CO)[C@@H](O)[C@@H]2O)[C@H](O)[C@H](O)[C@H]1O [Neoeriocitrin] | 6% | 13% |
| CCCC(C(=O)O)c1c(C)nc2ccc(Cl)cc2c1-c1ccccc1 (stereo not shown) [HIV‐1 integrase inhibitor 2] | 14% | 13% |
| Cc1ccc(C(N)=O)cn1 [6‐Methylni cotinamid e] | 0% | 0% |
| C[C@@H](O)[C@H]1C(=O)N2C(C(=O)O)=C(S[C@@H]3CN[C@H](CNS(N)(=O)=O)C3)[C@H](C)[C@H]12.O [Doripenem (monohydrate)] | 15% | 7% |
| OC[C@@H](O)[C@@H](O)[C@H](O)[C@H](O)CO (racemic) [DL-Mannitol] | 0% | 15% |
